Key:
[1] = target: T1, PDE1A3 (Homo sapiens, UniProt P54750); assay: In vitro HTRF PDE1 inhibition assay (PDE1A3); assay type: biochemical; settings: PDE1A3, 100 nM cyclic GMP
From the text: (§1) An exemplary procedure for the in vitro Homogenous Time Resolved Fluorescence assay, which can be used to determine the inhibitory action of compounds of the present invention toward PDE1 or its isoforms, follows.
(§2) The HTRF PDE1 assay utilized the HTRF (Homogenous Time Resolved Fluorescence) technology, which is based on the competition between unlabeled cyclic nucleotide and cyclic nucleotide labeled with XL665 for the binding to cyclic nucleotide-specific antibody labeled with cryptate. The HTRF signal is thus inversely proportional to the concentration of cyclic nucleotide being measured. Since phosphodiesterases break down cyclic nucleotides, the HTRF signal was used to determine PDE activity.
(§3) The Cisbio cGMP HTRF assay kit (Cat no: 62GM2PEC) was utilized. Cyclic GMP was diluted to 200 nM in HTRF assay buffer (1 mM CaCl2, 10 mM MgCl2, 10 mM Tris-HCl, 0.1% BSA, pH 7.4). 10 μl of compound or DMSO was diluted in 200 nM cyclic GMP solution and added to wells of a 96 well white plate to give 100 nM cyclic GMP in 1% DMSO final concentration. PDE (1A3, 1B or 1C) was diluted to 2× working concentration in HTRF assay buffer with 2 μg/ml Calmodulin, and 10 μl was added to initiate the reaction. The plate was then incubated for 45 minutes at 27° C. d2-Labelled cyclic GMP and anti-cGMP cryptate were diluted in 50 mM phosphate buffer, 0.8 M KF, 1% Triton X100, 0.2% BSA, pH 7.0. Following incubation 10 μl d2-cGMP, then 10 μl anti cGMP cryptate were added to each well and the plate was incubated for 60 minutes at room temperature. The plate was then read on Perkin Elmer EnVision at 2 different FRET readings ex/em 340 nm/665 nm and 340 nm/615 nm.
(§4) Compounds having an IC50 of <1 μM are denoted as +++. Compounds having an IC50 of 1-10 μM are denoted as ++. Compounds having an IC50 of 10-100 μM are denoted as +.

[2] = target: T2, PDE1C (Homo sapiens, UniProt Q14123); assay: In vitro HTRF PDE1 inhibition assay (PDE1C); assay type: biochemical; settings: 100 nM cyclic GMP
From the text: as §1, §2, §3, §4

[3] = target: T2, PDE1C; assay: In vitro SPA PDE1 inhibition assay (PDE1C); assay type: biochemical; settings: [3H]-cGMP 100 nM
Description: (§5) The commercially available Scintillation Proximity Assay (SPA) system (Perkinelmer) was used for PDE1 inhibition assays. SPA Yttrium Silicate beads preferentially binds to non-cyclic GMP compared to cyclic GMP (cGMP) in the presence of zinc sulphate, which enables to measure the amount of enzyme reaction product ([^3H]-GMP) by scintillation counting.
(§6) For PDE1 inhibition assay, 10 μl of the test compounds in 5% dimethyl sulfoxide diluted in SPA assay buffer (1 mM CaCl2, 10 mM MgSO4, 10 mM Tris-HCl, pH 7.4) were placed in a 96-well white microtiter plate, and 20 μl of [^3H]-cGMP solution (100 nM final concentration, Perkinelmer) in SPA assay buffer was added. Assays were initiated by adding 20 μl of PDE (1A3, 1B or 1C) enzyme solution including calmodulin (final concentration 1 μg/ml). After 30 min incubation at 27° C., the reaction was stopped by the addition of 50 μl of a suspension of 10 mg/ml SPA beads in 18 mM ZnSO4. The microtiter plates were settled for 60 min, and then were measured in a TopCount NXT scintillation counter (PerkinElmer). IC50 values were determined from sigmoidal curves by plotting the percentage of PDE activity versus log compound concentration. IC50 was defined as the concentration of the test compounds required to inhibit the cyclic nucleotide hydrolyzing activities of tested PDEs by 50%.

[4] = Evaluation of bioavailability, PK test in rats; assay type: in vivo; settings: rat; 7 week-old SD rats, intravenous vs oral administration, plasma LC-MS
Description: This test can be used to assess pharmacokinetics of the compounds of the present invention. Each compound of the invention was administered to 7 week-old SD rats intravenously with a solution in saline: 0.1N HCl=9:1 or orally with a 0.5% suspension in methyl cellulose, and each blood sample was collected at an appropriate interval as follows:
5, 15, and 30 minutes, and 1, 2, 4, 6, and 24 hours after intravenous administration
15 and 30 minutes, and 1, 2, 4, 6, and 24 hours after oral administration
The plasma was obtained from each blood, and the concentration of each compound in the plasma was measured with an LC-MS to calculate each pharmacokinetic parameter based on the concentration change.

[5] = target: T3, PDE1B (Homo sapiens, UniProt Q01064); assay: In vitro HTRF PDE1 inhibition assay (PDE1B); assay type: biochemical; settings: in vitro PDE1B HTRF Assay; read-out: IC50
Description: The Cisbio cGMP HTRF assay kit (Cat no: 62GM2PEC) was utilized. Cyclic GMP was diluted to 200 nM in HTRF assay buffer (1 mM CaCl2, 10 mM MgCl2, 10 mM Tris-HCl, 0.1% BSA, pH 7.4). […] PDE (1A3, 1B or 1C) was diluted to 2× working concentration in HTRF assay buffer with 2 μg/ml Calmodulin, and 10 μl was added to initiate the reaction. The plate was then incubated for 45 minutes at 27° C. d2-Labelled cyclic GMP and anti-cGMP cryptate were diluted in 50 mM phosphate buffer, 0.8 M KF, 1% Triton X100, 0.2% BSA, pH 7.0. Following incubation 10 μl d2-cGMP, then 10 μl anti cGMP cryptate were added to each well and the plate was incubated for 60 minutes at room temperature. The plate was then read on Perkin Elmer EnVision at 2 different FRET readings ex/em 340 nm/665 nm and 340 nm/615 nm.

[6] = test system: cognitive dysfunction in PCP-treated rats; assay: Novel object recognition test in rats repeatedly treated with phencyclidine (PCP); assay type: in vivo; settings: rats given PCP 3 mg/kg i.p. twice a day for 10 days; compound 1 or 3 mg/kg orally 60 minutes before test; compared to PCP+vehicle group
Description: Since an N-Methyl-D-aspartate receptor antagonist phencyclidine (PCP) has been known to cause schizophrenia-like symptoms including cognitive dysfunction in humans, PCP-treated animals have been widely used as a schizophrenic animal model. Using rats to which PCP was repeatedly administered as a schizophrenic animal model, the improvement in cognitive dysfunction with the compounds of the invention was evaluated in the novel object recognition test. Rats were habituated to the test environment which is a box (50 cm×50 cm×35 cm) with no object inside for 1 hour per day for 3 days. On the test day, rats were again put into the test box with no object inside to habituate themselves for three minutes. The rats were then put into the test box with two identical objects inside and were made to explore inside for three minutes for a training trial. After one minute, they were put into the test box with one of the objects (i.e., the familiar object) that was the same as used in the training trial and another object (i.e., a novel object) inside and were made to explore inside for three minutes for a test trial. Cognitive function was evaluated on the basis of preference for the novel object in the test trial utilizing rats' habit of exploring a novel object longer than a familiar object. Discrimination Index was calculated from the following equation as an index for preference of a novel object.
Discrimination Index=(Time to explore novel object−Time to explore familiar object)/(Time to explore novel object+Time to explore familiar object)

[7] = Test for drug transportation to brain in rats; assay type: in vivo; settings: rat; SD rats, oral, one hour after administration; non-binding drug concentration ratio between brain and plasma
From the text: Test for Drug Transportation to Brain in Rats
This test can be used to assess transportation of the compounds of the present invention to the brain. Each compound of the invention was orally administered to 7 week-old SD rats with a 0.5% suspension in methyl cellulose, and each plasma and brain were collected one hour after administration to measure the concentration of each compound in the plasma and the brain with an LC-MS.
Each protein binding ratio of the compounds in the plasma and the brain was measured by the equilibrium dialysis method.
The obtained concentrations and protein binding ratios of the compounds in the plasma and the brain can be applied to the following equation to calculate Kp, uu, brain (i.e., non-binding drug concentration ratio between brain and plasma).
Kp, uu, brain=[Compound concentration in brain×(100−Protein binding ratio in brain (%))/100]/[Compound concentration in plasma×(100−Protein binding ratio in plasma (%))/100]

[8] = target: T1, PDE1A3; assay: In vitro SPA PDE1 inhibition assay (PDE1A3); assay type: biochemical; settings: PDE1A3, [3H]-cGMP 100 nM
Description: as §5, §6

[9] = target: T3, PDE1B; assay: In vitro SPA PDE1 inhibition assay (PDE1B); assay type: biochemical; settings: [3H]-cGMP 100 nM
Description: as §5, §6

T3 sequence (Q01064 whole entry): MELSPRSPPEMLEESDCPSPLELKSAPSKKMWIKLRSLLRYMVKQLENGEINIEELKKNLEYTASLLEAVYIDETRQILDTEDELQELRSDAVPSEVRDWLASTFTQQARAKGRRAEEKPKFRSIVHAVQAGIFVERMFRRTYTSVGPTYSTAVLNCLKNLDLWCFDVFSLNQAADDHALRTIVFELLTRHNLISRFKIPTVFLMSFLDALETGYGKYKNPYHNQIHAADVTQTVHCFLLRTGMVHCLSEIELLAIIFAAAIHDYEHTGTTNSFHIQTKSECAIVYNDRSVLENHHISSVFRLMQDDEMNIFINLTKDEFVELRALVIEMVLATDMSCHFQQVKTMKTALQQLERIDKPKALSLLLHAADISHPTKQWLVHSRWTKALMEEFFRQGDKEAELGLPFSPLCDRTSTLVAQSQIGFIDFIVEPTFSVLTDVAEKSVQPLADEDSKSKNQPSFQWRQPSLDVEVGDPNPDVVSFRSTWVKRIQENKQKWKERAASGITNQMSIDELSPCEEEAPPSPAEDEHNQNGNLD

COc1nn2c(C3CCOCC3)ncc2c(=O)n1CC1CCC(F)(F)CC1 [Example 115, 3-[(4,4-difluorocyclohexyl)methyl]-2-methoxy-7-(tetrahydro-2H-pyran-4-yl)imidazo[5,1-][1,2,4]triazin-4(3H)-one]
IC50 [1]: < 1 µM | IC50 [2]: < 1 µM | IC50 [3]: 0.065 µM | bioavailability [4]: 13.4% | IC50 [5]: < 1000 nM | Discrimination Index in novel object recognition test [6]: significant increase | Kp uu at 1 h [7]: 0.96 | IC50 [8]: 0.034 µM | IC50 [9]: 0.033 µM

Cn1c(OC[C@H]2CC[C@H](C(F)(F)F)CC2)nn2c(C3CCOCC3)ncc2c1=O [Example 245, 3-methyl-7-(tetrahydro-2H-pyran-4-yl)-2-{[trans-4-(trifluoromethyl)cyclohexyl]methoxy}-imidazo[5,1-][1,2,4]triazin-4(3H)-one]
IC50 [1]: < 1 µM | IC50 [2]: < 1 µM | IC50 [3]: 0.547 µM | bioavailability [4]: 30.4% | IC50 [5]: < 1000 nM | Discrimination Index in novel object recognition test [6]: significant increase | Kp uu at 1 h [7]: 0.72 | IC50 [8]: 0.113 µM | IC50 [9]: 0.036 µM

CCOC[C@H]1CC[C@H](COc2nn3c(C4CCOCC4)ncc3c(=O)n2C)CC1 [Example 288, 2-{[trans-4-(ethoxymethyl)cyclohexyl]methoxy}-3-methyl-7-(tetrahydro-2H-pyran-4-yl)-imidazo[5,1-][1,2,4]triazin-4(3H)-one]
IC50 [1]: < 1 µM | IC50 [2]: < 1 µM | IC50 [3]: 0.276 µM | bioavailability [4]: 54.5% | IC50 [5]: < 1000 nM | Discrimination Index in novel object recognition test [6]: significant increase | Kp uu at 1 h [7]: 0.61 | IC50 [8]: 0.08 µM | IC50 [9]: 0.023 µM

CCn1c(OCC2CCC(F)(F)CC2)nn2c(C3CCOCC3)ncc2c1=O [Example 1]
IC50 [1]: < 1 µM | IC50 [2]: < 1 µM | IC50 [3]: 0.665 µM | bioavailability [4]: 23.3% | IC50 [5]: < 1000 nM | Discrimination Index in novel object recognition test [6]: significant increase | Kp uu at 1 h [7]: 0.69 | IC50 [8]: 0.22 µM | IC50 [9]: 0.088 µM

CC(C)c1ncc2c(=O)n(C)c(NCc3ccc(Cl)cn3)nn12 [Example 149, 2-{[(5-chloropyridin-2-yl)methyl]amino}-3-methyl-7-(propan-2-yl)imidazo[5,1-f][1,2,4]triazin-4(3H)-one]
IC50 [1]: < 1 µM | IC50 [2]: < 1 µM | IC50 [3]: 0.425 µM | bioavailability [4]: 55.6% | IC50 [5]: < 1000 nM | Discrimination Index in novel object recognition test [6]: significant increase | Kp uu at 1 h [7]: 0.3 | IC50 [8]: 0.144 µM | IC50 [9]: 0.051 µM

CCO[C@H]1CC[C@H](COc2nn3c(C4CCOCC4)ncc3c(=O)n2C)CC1 [Example 246, 2-[(trans-4-ethoxycyclohexyl)methoxy]-3-methyl-7-(tetrahydro-2H-pyran-4-yl)imidazo[5,1-][1,2,4]triazin-4(3H)-one]
IC50 [1]: < 1 µM | IC50 [2]: < 1 µM | IC50 [3]: 0.788 µM | bioavailability [4]: 51.6% | IC50 [5]: < 1000 nM | Kp uu at 1 h [7]: 0.26 | IC50 [8]: 0.289 µM | IC50 [9]: 0.064 µM

COc1nn2c(C3CCOCC3)ncc2c(=O)n1Cc1ccc(Cl)cc1 [Example 109, 3-(4-chlorobenzyl)-2-methoxy-7-(tetrahydro-2H-pyran-4-yl)imidazo[5,1-f][1,2,4]triazin-4(3H)-one]
IC50 [1]: < 1 µM | IC50 [2]: < 1 µM | IC50 [3]: 0.057 µM | IC50 [5]: < 1000 nM | Kp uu at 1 h [7]: 1.02 | IC50 [8]: 0.023 µM | IC50 [9]: 0.028 µM

Reference: US20180044343A1, “BICYCLIC IMIDAZOLO DERIVATIVE” (Sumitomo Dainippon Pharma Co., Ltd., priority 2015, published 2018)
